Data set [1] can be described thus: Solubility Test (shake flask at 37° C., HPLC). The data set is classed as physicochemical. Conditions: for solubility in The First Fluid: first fluid of disintegration test of Japanese Pharmacopoeia; for solubility in The First Fluid / solubility in water: shaken 125 strokes per minute, constant or maximum concentration over 0.5-20 hours. The procedure: Each crystal polymorph (0.4 g), which was prepared by the above method, was taken in 50 mL Erlenmeyer flask respectively, and to the mixture was added 20 mL of the mediums as defined below. The flask was shaken at 125 strokes per minute at 37° C. After 0.5, 1, 2 and 20 hours from the start of shaking, 1.5 mL of the suspension was filtered through a membrane filter (pore size: 0.2 μm). The concentration of the filtrate for each crystal polymorph was determined by HPLC method to determine the solubility. The concentration where the concentration became constant by the temporal measurements of the concentration was determined to be the solubility of each polymorph, and the results are shown in Table 1. […] In the cases of crystalline form F and amorphous form, since these samples were dissolved completely in each medium within 0.5 hours after the start of the test, additional samples were added appropriately to the test flasks at the point of 0.5 hours after the start and the solubility tests were continued. The mediums: water or the first fluid of disintegration test of Japanese Pharmacopoeia (hereinafter referred to as The First Fluid).

Data set [2] is described as follows: Chemical Stability Test (storage at 60° C. for 1 week, HPLC and appearance). In kind it is physicochemical. The procedure:
Crystalline form F obtained in Example 1 was stored at 60° C. for 1 week to investigate the chemical stability. As the chemical stability, the residual percentage of ethyl (−)-2-[4-[2-[[(1S,2R)-2-hydroxy-2-(4-hydroxyphenyl)-1-methylethyl]amino]ethyl]-2,5-dimethylphenoxy]-acetate was determined by HPLC, and the change in appearance was also observed.

These results are taken from US8003694B2, “Crystal of hydroxynorephedrin derivative hydrochloride ¼ hydrate” (Kissei Pharmaceutical Co., Ltd., priority 2005, dated 2011).

Each structure is given as a SMILES string.

Regarding `CCOC(=O)COc1cc(C)c(CCN[C@@H](C)[C@H](O)c2ccc(O)cc2)cc1C.Cl` [amorphous form, ethyl (−)-2-[4-[2-[[(1S,2R)-2-hydroxy-2-(4-hydroxyphenyl)-1-methylethyl]amino]ethyl]-2,5-dimethylphenoxy]acetate hydrochloride], in data set [1] (hydrochloride), the “solubility in The First Fluid” value was determined as 2.6 mg/mL and the solubility in water is listed as 17.8 mg/mL.
For `CCOC(=O)COc1cc(C)c(CCN[C@@H](C)[C@H](O)c2ccc(O)cc2)cc1C.Cl` [crystal form A, ethyl (−)-2-[4-[2-[[(1S,2R)-2-hydroxy-2-(4-hydroxyphenyl)-1-methylethyl]amino]-ethyl]-2,5-dimethylphenoxy]acetate hydrochloride], in that order: 2.4 mg/mL and 10.7 mg/mL.
For `CCOC(=O)COc1cc(C)c(CCN[C@@H](C)[C@H](O)c2ccc(O)cc2)cc1C.Cl` [crystal form B, ethyl (−)-2-[4-[2-[[(1S,2R)-2-hydroxy-2-(4-hydroxyphenyl)-1-methylethyl]amino]-ethyl]-2,5-dimethylphenoxy]acetate hydrochloride], in that order: 2.9 mg/mL and 12.5 mg/mL.
Turning to `CCOC(=O)COc1cc(C)c(CCN[C@@H](C)[C@H](O)c2ccc(O)cc2)cc1C.Cl` [crystal form F, ethyl (−)-2-[4-[2-[[(1S,2R)-2-hydroxy-2-(4-hydroxyphenyl)-1-methylethyl]amino]ethyl]-2,5-dimethylphenoxy]acetate hydrochloride ¼ hydrate], the “solubility in The First Fluid relative to crystalline forms A and B and amorphous form” value in data set [1] (The First Fluid) is on record as “about 5 times”. In addition, in data set [1] (hydrate), the “solubility in The First Fluid” value stood at 11.8 mg/mL and the solubility in water is listed as 24.3 mg/mL. Further, in data set [2] (after 1 week at 60° C.), the appearance entry is given as “white” and the “residual percentage (chemical purity %)” value amounted to 98.1%. Moreover, in data set [2] (at start), the appearance entry is “white” and the “residual percentage (chemical purity %)” value is given as 98.1%. For the same compound, the “changes in chemical purity and appearance” value in data set [2] (stored at 60° C. for 1 week) was “no changes”.
